Measured values as given in patent publication US20230407098A1, “METHOD FOR EVALUATING CYSTINE UPTAKE ABILITY OF CELL, KIT FOR EVALUATING CYSTINE UPTAKE ABILITY OF CELL, METHOD FOR DETERMINING SELENOCYSTEINE, AND KIT FOR DETERMINING SELENOCYSTEINE” (DOJINDO LABORATORIES, priority 2021, published 2023).

Experiments:
cystine transporter = biological target: T1, cystine transporter (Homo sapiens, UniProt Q9UPY5); assay: Inhibition of selenocystine uptake by cystine transporter inhibitor; type: cell-based; conditions: HeLa cells, with cystine transporter inhibitor (sulfasalazine or erastin); FIG. 3
T1 construct: endogenous in cells; host or cells: HeLa cells
T1 sequence (Q9UPY5 1-501): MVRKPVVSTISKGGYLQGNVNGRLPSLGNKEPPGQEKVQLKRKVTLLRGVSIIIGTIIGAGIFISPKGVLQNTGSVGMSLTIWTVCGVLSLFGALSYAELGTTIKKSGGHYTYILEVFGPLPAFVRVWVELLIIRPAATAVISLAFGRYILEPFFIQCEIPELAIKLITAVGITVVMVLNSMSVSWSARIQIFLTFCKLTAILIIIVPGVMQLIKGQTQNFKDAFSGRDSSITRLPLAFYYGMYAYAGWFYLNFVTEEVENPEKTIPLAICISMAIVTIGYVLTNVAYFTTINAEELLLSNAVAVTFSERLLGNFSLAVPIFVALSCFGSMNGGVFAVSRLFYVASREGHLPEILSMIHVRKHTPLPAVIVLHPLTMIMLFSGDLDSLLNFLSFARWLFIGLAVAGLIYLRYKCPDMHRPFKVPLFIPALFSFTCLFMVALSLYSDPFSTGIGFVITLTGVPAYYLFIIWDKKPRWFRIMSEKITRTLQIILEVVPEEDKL
T1 sequence (P08195 1-529 partner): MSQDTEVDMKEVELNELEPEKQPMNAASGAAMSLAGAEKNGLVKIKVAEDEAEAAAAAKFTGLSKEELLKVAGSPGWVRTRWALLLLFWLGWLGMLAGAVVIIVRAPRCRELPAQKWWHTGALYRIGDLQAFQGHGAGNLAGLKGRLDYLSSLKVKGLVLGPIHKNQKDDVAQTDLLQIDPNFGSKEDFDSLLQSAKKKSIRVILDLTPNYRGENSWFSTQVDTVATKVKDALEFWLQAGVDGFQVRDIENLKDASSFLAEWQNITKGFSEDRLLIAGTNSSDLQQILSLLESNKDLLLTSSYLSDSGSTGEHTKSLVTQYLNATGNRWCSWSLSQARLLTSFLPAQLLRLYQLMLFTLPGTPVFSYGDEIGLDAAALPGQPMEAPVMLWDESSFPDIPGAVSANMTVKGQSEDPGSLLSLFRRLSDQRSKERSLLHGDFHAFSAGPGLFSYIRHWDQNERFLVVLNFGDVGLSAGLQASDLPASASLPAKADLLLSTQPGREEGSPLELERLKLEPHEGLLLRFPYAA
Procedure: DMEM (cystine-free) containing a cystine transporter inhibitor (sulfasalazine or erastin) was added to HeLa cells, and the cells were incubated in the CO2 incubator (37° C.) for 5 minutes. DMEM (cystine-free) containing 200 μM selenocystine was then added, and the cells were incubated in the CO2 incubator (37° C.) for 30 minutes. After removing the supernatant, the cells were washed with PBS three times and lysed with methanol. Then, 100 mM MES at a pH of 6 containing 10 μM FOdA and 200 μM TCEP was added, and the cells were incubated at 37° C. for 30 minutes. The fluorescence intensity of each solution was then measured with a plate reader (Infinite(R) 200 PRO, excitation wavelength: 485 nm, fluorescence wavelength: 535 nm).

HeLa cells = assay: Ability to take selenocystine into cells (FOdA/TCEP fluorescence measurement); type: cell-based, human; conditions: selenocystine at concentrations in cystine-free DMEM, 30 minutes, FIG. 2
Procedure: DMEM (cystine-free) was added to HeLa cells, and the cells were incubated in a CO2 incubator (37° C.) for 5 minutes. After the removal of the supernatant, DMEM (cystine-free) containing selenocystine at concentrations was added, and the cells were incubated in the CO 2 incubator (37° C.) for 30 minutes. After removing the supernatant, the cells were washed with PBS three times and then lysed with methanol. Then, 100 mM MES at a pH of 6 containing 10 μM FOdA and 200 μM TCEP was added, and the mixture was incubated at 37° C. for 30 minutes. The fluorescence intensity of each solution was then measured with a plate reader (Infinite(R) 200 PRO, excitation wavelength: 485 nm, fluorescence wavelength: 535 nm).

## N[C@@H](C[Se][Se]C[C@H](N)C(=O)O)C(=O)O [selenocystine]
Cystine transporter
  route of selenocystine uptake: taken through cystine transporter
HeLa cells
  fluorescence intensity (selenocystine taken up by the cells): increased depending on the concentration of selenocystine
